Laboratory results: patent US5225528A, “Cyclic hexapeptide oxytocin antagonists” (priority 1990, dated 1993)
Read-outs that look alike come from different tables or passages of the source. Numbered stars: 1 amine (or outer) side, 2 acyl side, 3 side chain; on linkers, the order of the positions; unused ones are H or OH. Square brackets hold non-standard residues; d marks the D form. Peptide text beside a SMILES is read from it. * marks the point of attachment. dPip(4-aza,4-Cbz) = O=C(O)[C@H]1CN(C(=O)OCc2ccccc2)CCN1; X2 = O=C(OCc1ccccc1)N1CCN([*:1])[C@H](C(=O)[*:2])C1; dPiz(1,6-dehydro) = O=C(O)[C@H]1CCC=NN1; d2Nal = N[C@H](Cc1ccc2ccccc2c1)C(=O)O; X1 = O=C([C@H]1C=CCCN1[*:1])[*:2]; NMeI = CC[C@H](C)[C@H](NC)C(=O)O; dNMeF = CN[C@H](Cc1ccccc1)C(=O)O; dPip(4-aza) = O=C(O)[C@H]1CNCCN1; hPhe = N[C@@H](CCc1ccccc1)C(=O)O; Pip = O=C(O)[C@@H]1CCCCN1; dPip = O=C(O)[C@H]1CCCCN1; ClZ = O=C(OCc1ccccc1Cl)*; Orn = NCCC[C@H](N)C(=O)O; dNMeA = CN[C@H](C)C(=O)O; Cbz = O=C(OCc1ccccc1)*; Boc = CC(C)(C)OC(=O)*; Bn = c1ccc(C*)cc1

What was measured:
AVP-V1 sites = target: T1, AVP-V1 sites (Rattus norvegicus, UniProt P30560); experiment: [^3 H]AVP binding to crude membrane preparation of male rat liver (AVP-V1 sites)
T1 construct: crude membrane preparation of male rat liver (AVP-V1 sites); from tissue; host or cells: male rat liver, crude membranes
T1 sequence (P30560 whole entry): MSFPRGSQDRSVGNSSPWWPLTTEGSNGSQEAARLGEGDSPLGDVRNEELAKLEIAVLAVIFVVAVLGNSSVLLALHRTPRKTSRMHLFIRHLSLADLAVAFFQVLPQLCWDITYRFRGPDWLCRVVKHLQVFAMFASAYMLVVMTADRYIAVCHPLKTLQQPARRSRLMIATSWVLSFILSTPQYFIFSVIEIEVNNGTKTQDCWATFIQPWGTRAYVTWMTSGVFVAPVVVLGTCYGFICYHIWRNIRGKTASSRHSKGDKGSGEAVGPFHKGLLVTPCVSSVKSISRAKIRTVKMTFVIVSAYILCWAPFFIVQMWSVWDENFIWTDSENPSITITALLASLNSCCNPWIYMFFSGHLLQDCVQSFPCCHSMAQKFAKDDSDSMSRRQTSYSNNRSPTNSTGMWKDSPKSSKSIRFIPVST
Protocol: (§1) Nonspecific binding (5-10% of the total binding) was determined using 10 μM unlabeled AVP, and the binding reaction was terminated by filtration as described above for the [^3 H]OT binding assay.

AVP-V2 sites = target: T2, AVP-V2 sites (Rattus norvegicus, UniProt Q00788); experiment: [^3 H]AVP binding to crude membrane preparation of male rat kidney medulla (AVP-V2 sites); settings: for IC50: read-out: Receptor Binding Results IC50 (nM) [^3 H]-AVP-V2; for inhibition at 1 µM: 0.5 h, @ 1,000 (nM), read-out: [^3 H]-AVP-V2: percent inhibition of radioligand at the given concentration
T2 construct: male rat liver (AVP-V1 sites) or kidney medulla (AVP-V2 sites); from tissue; host or cells: male rat kidney medulla, crude membranes
T2 sequence (Q00788 whole entry): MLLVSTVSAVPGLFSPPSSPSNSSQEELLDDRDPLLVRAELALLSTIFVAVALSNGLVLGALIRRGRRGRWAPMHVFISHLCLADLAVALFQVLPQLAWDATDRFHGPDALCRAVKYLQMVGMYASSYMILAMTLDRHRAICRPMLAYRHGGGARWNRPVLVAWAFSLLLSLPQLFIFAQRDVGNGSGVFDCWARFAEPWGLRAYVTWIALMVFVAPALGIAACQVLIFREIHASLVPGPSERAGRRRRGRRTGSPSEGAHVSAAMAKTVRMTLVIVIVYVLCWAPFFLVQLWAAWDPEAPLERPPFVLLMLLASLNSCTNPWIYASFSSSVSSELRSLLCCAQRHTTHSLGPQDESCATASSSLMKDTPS
Protocol: as §1

uterine OT receptors = target: T3, uterine OT receptors (Rattus norvegicus, UniProt P70536); experiment: [^3 H]OT binding to uterine OT receptors, crude membrane preparation of uteri from DES-treated rats; settings: for IC50: rat uterus membranes, 1 nM [^3 H]OT, read-out: Receptor Binding Results IC50 (nM) [^3 H]OT; for inhibition at 1 µM: @ 1,000 (nM)
T3 construct: from tissue; host or cells: uterus of DES-treated rats, crude membranes
T3 sequence (P70536 1-388): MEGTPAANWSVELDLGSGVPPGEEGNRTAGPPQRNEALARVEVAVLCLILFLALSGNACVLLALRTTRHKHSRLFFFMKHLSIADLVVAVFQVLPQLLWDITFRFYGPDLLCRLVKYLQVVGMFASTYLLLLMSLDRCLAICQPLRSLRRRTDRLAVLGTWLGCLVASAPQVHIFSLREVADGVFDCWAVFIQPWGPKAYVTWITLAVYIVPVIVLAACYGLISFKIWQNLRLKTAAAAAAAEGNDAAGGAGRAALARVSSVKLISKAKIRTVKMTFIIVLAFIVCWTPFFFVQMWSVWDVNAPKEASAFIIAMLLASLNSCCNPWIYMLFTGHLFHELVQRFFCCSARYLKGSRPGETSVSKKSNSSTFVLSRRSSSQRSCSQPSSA
Protocol: Competition studies were conducted at equilibrium (60 minutes; 22° C.) using 1 nM [^3 H]OT in the following assay buffer: 50 mM Tris-HCl, 5 mM MgCl2, and 0.1% BSA, pH 7.4.

[1] = Receptor Binding Results IC50 (nM) [^3 H]-AVP-V1
[2] = rat kidney medulla membranes, 2 nM [^3 H]AVP
[3] = 1 h, read-out: [^3 H]OT: percent inhibition of radioligand at the given concentration
[4] = read-out: Receptor Binding Results IC50 (nM) [^3 H]-AVP-V1

SMILES | IC50 (AVP-V1 sites; [1]) [nM] | IC50 (AVP-V2 sites; [2]) [nM] | IC50 (uterine OT receptors) [nM] | other results
CC[C@H](C)[C@H]1C(=O)N2CCCC[C@@H]2C(=O)N2CCCC[C@H]2C(=O)N(C)[C@H](Cc2ccccc2)C(=O)N2CCC[C@H]2C(=O)N(C)[C@H](C)C(=O)N1C [Example 16, C-[D-(N^α methyl)alanyl-L-(N^α methyl)isoleucyl-D-pipecolyl-L-pipecolyl-D-(N^α methyl)phenylalanyl-L-prolyl]] (cyclo([NMeI][dPip][Pip][dNMeF]P[dNMeA])) | > 10000 | > 10000 | 650 | –
CC[C@H](C)[C@@H]1NC(=O)[C@@H](Cc2c[nH]c3ccccc23)NC(=O)[C@@H]2CCCN2C(=O)[C@@H](Cc2ccccc2)N(C)C(=O)[C@@H]2CN(C(=O)OCc3ccccc3)CCN2C(=O)[C@H]2CCC=NN2C1=O [Example 168, c-[D-Tryptophanyl-L-isoleucinyl-D-Δ-piperazyl-L-piperazin-2-yl(4-Cbz)-N-Me-D-phenylalanyl-L-prolyl]] (cyclo(I[dPiz(1,6-dehydro)][X2][dNMeF]P[dW])) | 10000 | – | 34 | inhibition at 1 µM (AVP-V2 sites): 54%
CC[C@H](C)[C@@H]1NC(=O)[C@@H](Cc2ccccc2)NC(=O)[C@@H]2CCCN2C(=O)[C@@H](CCCCNC(=O)OCc2ccccc2Cl)NC(=O)[C@@H]2CCCCN2C(=O)[C@H]2CCCCN2C1=O [Example 26, Cyclo[D-phenylalanyl-L-isoleucyl-D-pipecolyl-L-pipecolyl-D-(2-chlorocarbobenzyloxy)-lysyl-L-prolyl]] (cyclo(I[dPip][Pip][dK](ClZ)P[dF])) | 10000 | 10000 | – | inhibition at 1 µM (uterine OT receptors; [3]): 86%
CC[C@H](C)[C@@H]1NC(=O)[C@@H](Cc2ccc3ccccc3c2)NC(=O)[C@@H]2CCCN2C(=O)[C@@H](Cc2c[nH]cn2)NC(=O)[C@@H]2CN(C(=O)OCc3ccccc3)CCN2C(=O)[C@H]2CCCCN2C1=O [Example 158, c-[D-2-Naphthylalanyl-L-isoleucyl-D-pipecolyl-L-piperazin-2-yl-(4-carbobenzyloxy)-D-histidyl-L-prolyl]] (cyclo(I[dPip][X2][dH]P[d2Nal])) | > 1000 | – | – | inhibition at 1 µM (AVP-V2 sites): 68%; inhibition at 0.01 µM (uterine OT receptors; 1 h, @ 10 (nM), read-out: [^3 H]OT: percent inhibition of radioligand at the given concentration): 60%
CN1C(=O)[C@@H]2CCCCN2C(=O)[C@H]2CCCCN2C(=O)[C@H](CCc2ccccc2)NC(=O)[C@@H](Cc2ccccc2)NC(=O)[C@@H]2CCCN2C(=O)[C@H]1Cc1ccccc1 [Example 135, c-[D-Phenylalanyl-L-homophenylalanyl-D-pipecolyl-L-pipecolyl-D-(N-methyl)phenylalanyl-L-prolyl]] (cyclo(P[dF][hPhe][dPip][Pip][dNMeF])) | – | – | 3400 | IC50 (AVP-V1 sites; [4]): 8800 nM; IC50 (AVP-V2 sites): 5000 nM
CN1C(=O)[C@@H]2CCCCN2C(=O)[C@H]2CCCCN2C(=O)[C@H](CCc2ccccc2)NC(=O)[C@@H](Cc2c[nH]c3ccccc23)NC(=O)[C@@H]2CCCN2C(=O)[C@H]1Cc1ccccc1 [Example 133, c-[D-Tryptophanyl-L-homophenylalanyl-D-pipecolyl-L-pipecolyl-D-(N-methyl)phenylalanyl-prolyl]] (cyclo(P[dW][hPhe][dPip][Pip][dNMeF])) | 10000 | 10000 | 3600 | –
CC[C@H](C)[C@@H]1NC(=O)[C@@H](Cc2c[nH]c3ccccc23)NC(=O)[C@@H]2CCCN2C(=O)[C@H](Cc2c[nH]cn2)NC(=O)[C@H](CCCNC(=O)OCc2ccccc2)NC(=O)[C@H]2CCCN2C1=O [Example 95, c-[D-Tryptophanyl-L-isoleucinyl-D-prolyl-L-ornithinyl(Cbz)-D-histidyl-L-prolyl]] (cyclo([dW]I[dP][Orn](Cbz)HP)) | > 10000 | > 10000 | – | inhibition at 0.1 µM (uterine OT receptors; 1 h, @ 100 (nM), read-out: [^3 H]OT: percent inhibition of radioligand at the given concentration): 36%
CC[C@H](C)[C@@H]1NC(=O)[C@@H](Cc2ccccc2)NC(=O)[C@@H]2CCCN2C(=O)[C@@H](Cc2ccccc2)NC(=O)[C@@H]2CCCCN2C(=O)[C@H]2CNCCN2C1=O [Example 84, c-[D-Phenylalanyl-L-isoleucinyl-D-piperazin-2-yl-L-pipecolyl-D-phenyalanyl-L-prolyl]] (cyclo(I[dPip(4-aza)][Pip][dF]P[dF])) | 10000 | > 10000 | > 1000 | –
CC[C@H](C)[C@@H]1NC(=O)[C@@H](Cc2ccccc2)NC(=O)[C@@H]2CCCN2C(=O)[C@@H](Cc2ccccc2)NC(=O)[C@H]2CN(C(=O)OCc3ccccc3)CCN2C(=O)[C@H]2CCCCN2C1=O [Example 76, c-[D-Phenylalanyl-L-isoleucinyl-D-pipecolyl-D-piperazin-2-yl(4-Cbz)-D-phenylalanyl-L-prolyl]] (cyclo(I[dPip][dPip(4-aza,4-Cbz)][dF]P[dF])) | – | – | 460 | IC50 (AVP-V1 sites; [4]): 9300 nM; IC50 (AVP-V2 sites): 10600 nM
CC[C@H](C)[C@@H]1NC(=O)[C@@H](C)NC(=O)[C@@H]2CCCN2C(=O)[C@@H](Cc2ccccc2)NC(=O)[C@@H]2CCCCN2C(=O)[C@H]2CCCCN2C1=O [Example 2, Cylco[D-alanyl-L-isoleucyl-D-pipecolyl-L-pipecolyl-D-phenylalanyl-L-prolyl]] (cyclo(I[dPip][Pip][dF]P[dA])) | > 10000 | > 10000 | > 10000 | –
CC[C@H](C)[C@@H]1NC(=O)[C@@H](Cc2ccccc2)NC(=O)[C@@H]2CCCN2C(=O)[C@@H](Cc2ccccc2)N(C)C(=O)[C@H]2C=CCCN2C(=O)[C@H]2CCCCN2C1=O [Example 22, Cyclo[D-Phenylalanyl-L-isoleucyl-D-pipecolyl-D-(3,4-Dehydro)-pipecolyl-D-(N^α methyl)phenylalanyl-L-Prolyl]] (cyclo(I[dPip][X1][dNMeF]P[dF])) | > 10000 | > 10000 | 2400 | –
CC[C@H](C)[C@@H]1NC(=O)[C@@H](Cc2c[nH]c3ccccc23)NC(=O)[C@@H]2CCCN2C(=O)[C@@H](Cc2c[nH]cn2)NC(=O)[C@H](Cc2c[nH]cn2)NC(=O)[C@H]2CCCN2C1=O [Example 94, c-[D-Tryptophanyl-L-isoleucinyl-D-prolyl-L-histidyl-D-histidyl-L-prolyl]] (cyclo(H[dH]P[dW]I[dP])) | 10000 | > 10000 | – | inhibition at 1 µM (uterine OT receptors; [3]): 64%
CC[C@H](C)[C@H]1C(=O)N2CCCC[C@@H]2C(=O)N2CCCC[C@H]2C(=O)N(C)[C@H](Cc2ccccc2)C(=O)N2CCC[C@H]2C(=O)N(C)[C@H](Cc2ccccc2)C(=O)N1C [Example 15, C-[D-(N^α methyl)phenylalanyl-L-(N^α methyl)isoleucyl-D-pipecolyl-L-pipecolyl-D-(N^α methyl)phenylalanyl-L-prolyl]] (cyclo([NMeI][dPip][Pip][dNMeF]P[dNMeF])) | > 10000 | > 10000 | > 10000 | –
CC[C@H](C)[C@@H]1NC(=O)[C@@H](Cc2ccccc2)NC(=O)[C@@H]2CCCN2C(=O)[C@@H](Cc2ccccc2)NC(=O)[C@@H]2CCCCN2C(=O)[C@H]2CCCCN2C1=O [Example 103, c-[D-Phenylalanyl-L-isoleucyl-D-pipecolyl-L-pipecolyl-D-phenylalanyl-L-prolyl]] (cyclo(I[dPip][Pip][dF]P[dF])) | – | > 10000 | 370 | IC50 (AVP-V1 sites; [4]): 5690 nM
CC[C@H](C)[C@@H]1NC(=O)[C@@H](Cc2ccc(O)cc2)NC(=O)[C@@H]2CCCN2C(=O)[C@@H](Cc2ccccc2)N(C)C(=O)[C@H](CCCCNC(=O)OC(C)(C)C)NC(=O)[C@H]2CCCCN2C1=O [Example 148, C-[D-Tyrosyl-L-isoleucyl-D-pipecolyl-L-(N-t-butyloxycarbonyl)lysyl-D-(N-methyl)phenylalanyl)-L-prolyl] (cyclo(I[dPip]K(Boc)[dNMeF]P[dY])) | > 10000 | > 10000 | – | inhibition at 1 µM (uterine OT receptors; [3]): 50%
CCOc1ccc(C[C@H]2NC(=O)[C@@H]3CCCN3C(=O)[C@@H](Cc3ccccc3)N(C)C(=O)[C@@H]3CCCCN3C(=O)[C@H]3CCCCN3C(=O)[C@H]([C@@H](C)CC)NC2=O)cc1 [Example 122, c-[(O-Ethyl)-D-tyrosyl-L-isoleucyl-D-pipecolyl-L-pipecolyl-N-methyl-D-phenylalanyl-L-prolyl]] (cyclo(I[dPip][Pip][dNMeF]P[dY](Et))) | > 10000 | – | 130 | IC50 (AVP-V2 sites): 695 nM
CC[C@H](C)[C@@H]1NC(=O)[C@@H](Cc2ccc(OCc3ccccc3)cc2)NC(=O)[C@@H]2CCCN2C(=O)[C@@H](Cc2ccccc2)N(C)C(=O)[C@H](CCCCN)NC(=O)[C@H]2CCCCN2C1=O [Example 145, C-[D-(O-Benzyl)Tyrosyl-L-isoleucyl-D-pipecolyl-L-lysyl-D-(N-methyl)phenylalanyl-L-prolyl]] (cyclo(I[dPip]K[dNMeF]P[dY](Bn))) | > 10000 | 10000 | – | inhibition at 1 µM (uterine OT receptors; [3]): 9%
